Laboratory results: ChEMBL document CHEMBL1146806, “Halothiophene benzimidazoles as P1 surrogates of inhibitors of blood coagulation factor Xa” (Bioorg Med Chem Lett, 2004)

Assays:
[1] = Oral bioavailability in rat; assay type: ADME, organism-based; conditions: in vivo
[2] = Solubility in pH 7.0 phosphate buffer; assay type: physicochemical
[3] = Oral bioavailability in dog; assay type: ADME, organism-based, Canis lupus familiaris; conditions: in vivo
Trypsin = Trypsin (Homo sapiens, UniProt P07477+P07478+P35030); experiment: Binding affinity against human trypsin; assay type: protein assay
Coagulation factor X = Coagulation factor X (Homo sapiens, UniProt P00742); experiment: Binding affinity of the compoumd to human coagulation factor Xa
Chain of Coagulation factor X (P00742 41-179 limits assumed): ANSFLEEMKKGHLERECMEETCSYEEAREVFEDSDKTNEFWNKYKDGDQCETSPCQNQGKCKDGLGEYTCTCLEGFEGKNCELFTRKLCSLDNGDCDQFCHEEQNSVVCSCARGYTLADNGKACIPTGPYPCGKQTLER
Chain of Coagulation factor X (P00742 235-488 limits assumed): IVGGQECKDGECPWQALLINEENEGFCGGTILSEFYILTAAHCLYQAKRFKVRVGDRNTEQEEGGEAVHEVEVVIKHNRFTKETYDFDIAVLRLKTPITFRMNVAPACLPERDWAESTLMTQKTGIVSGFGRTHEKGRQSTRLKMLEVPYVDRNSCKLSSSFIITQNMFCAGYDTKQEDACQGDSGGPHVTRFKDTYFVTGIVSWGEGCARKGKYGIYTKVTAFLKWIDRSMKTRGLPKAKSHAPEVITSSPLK

Prothrombin = Prothrombin (Homo sapiens, UniProt P00734); experiment: Binding affinity against human thrombin.
Serine protease 1 = Serine protease 1 (Homo sapiens, UniProt P07477); experiment: Binding affinity of the compoumd against human trypsin was determined
Chain of Serine protease 1 (P07477 whole entry): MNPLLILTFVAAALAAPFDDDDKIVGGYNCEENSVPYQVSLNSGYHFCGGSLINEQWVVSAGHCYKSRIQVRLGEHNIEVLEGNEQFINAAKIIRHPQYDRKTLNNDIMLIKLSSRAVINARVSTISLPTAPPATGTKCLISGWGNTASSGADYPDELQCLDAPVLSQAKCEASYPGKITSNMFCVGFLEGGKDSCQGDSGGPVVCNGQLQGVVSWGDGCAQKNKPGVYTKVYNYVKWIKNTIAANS

Structure (SMILES)	bioavailability [1] [%]	solubility [2] [µg/mL]	bioavailability [3] [%]	IC50 (Trypsin) [µM]	IC50 (Coagulation factor X) [µM]	IC50 (Prothrombin) [µM]	IC50 (Serine protease 1) [µM]
Cc1cc(NC(=O)Cc2ccc3[nH]c(-c4ccc(Cl)s4)nc3c2)ccc1N1CCOCC1=O	< 20	< 10	< 20				
O=C(Cc1ccc(N2CCOCC2=O)cc1)Nc1ccc2[nH]c(-c3ccc(Cl)s3)nc2c1	< 20	< 10	< 20	> 10	1.2	> 10	
CCC[C@@H](NC(=O)Nc1ccc(Cl)cc1)C(=O)Nc1ccc(N2CCOCC2=O)cc1	< 20	< 10	< 20			> 10	> 10
O=C(CCc1ccc2nc(-c3ccc(Cl)s3)[nH]c2c1)Nc1ccc(N2CCOCC2=O)cc1F	< 20	< 10	< 20			> 10	> 10
CC1CC(=O)NN=C1c1ccc2[nH]c(-c3ccc(Cl)s3)nc2c1 (centres undefined)	< 20	< 10	< 20	> 10		> 10	
O=C(Cc1ccc2[nH]c(-c3ccc(Cl)s3)nc2c1)Nc1ccc(N2CCCC2=O)cc1	< 20	< 10	< 20	> 10	0.53	> 10	
O=C(COc1ccc2[nH]c(-c3ccc(Cl)s3)nc2c1)Nc1ccc(N2CCOCC2=O)cc1	< 20	< 10	< 20		0.15		
O=C(CCc1ccc2[nH]c(-c3ccc(Cl)s3)nc2c1)Nc1ccc(N2CCOCC2=O)cc1	< 20	< 10	< 20				
O=C(Cc1ccc2[nH]c(-c3ccc(Cl)s3)nc2c1)NCc1ccc(N2CCOCC2=O)cc1	< 20	< 10	< 20		0.17		
O=C(NCc1ccc2[nH]c(-c3ccc(Cl)s3)nc2c1)c1ccc(N2CCOCC2=O)cc1	< 20	< 10	< 20	> 10	0.44	> 10	
CS(=O)(=O)c1ccccc1-c1ccc(NC(=O)Cc2ccc3[nH]c(-c4ccc(Cl)s4)nc3c2)cc1	< 20	< 10	< 20	> 10		> 10	
O=C(Nc1ccc(N2CCOCC2=O)cc1)c1ccc2[nH]c(-c3ccc(Cl)s3)nc2c1	< 20	< 10	< 20	> 10		> 10	
CC1CC(=O)NN=C1c1ccc2[nH]c(-c3ccc(Br)s3)nc2c1 (centres undefined)	< 20	< 10	< 20		0.98	> 10	> 10
O=C(Cc1ccc2[nH]c(-c3ccc(Cl)s3)nc2c1)Nc1ccc(N2CCOCC2=O)cc1	< 20	< 10	< 20	> 10		> 10	
Cc1cc(NC(=O)Cc2ccc3[nH]c(-c4ccc(Cl)s4)nc3c2)ccc1-n1ccccc1=O	< 20	< 10	< 20		0.18		
O=C(Cc1ccc2[nH]c(-c3ccc(Cl)s3)nc2c1)Nc1ccc(N2CCCCC2=O)cc1	< 20	< 10	< 20	> 10	0.26	> 10	

Results, then the compound that gave them:

bioavailability [1] [%]	solubility [2] [µg/mL]	bioavailability [3] [%]	IC50 (Trypsin) [µM]	IC50 (Coagulation factor X) [µM]	IC50 (Prothrombin) [µM]	IC50 (Serine protease 1) [µM]	Structure (SMILES)
< 20	< 10	< 20		0.0076	> 10	> 10	O=C(CCc1ccc2[nH]c(-c3ccc(Cl)s3)nc2c1)Nc1ccc(-n2ccccc2=O)c(F)c1
< 20	< 10	< 20		0.007	> 10	> 10	O=C(CCc1ccc2[nH]c(-c3ccc(Cl)s3)nc2c1)Nc1ccc(N2CCOCC2=O)c(Cl)c1
< 20	< 10	< 20		0.015			N=C(N)c1cccc(N[C@H](C(=O)Nc2ccc(N3CCCCC3=O)cc2)c2ccccc2)c1
< 20	< 10	< 20	> 10	0.0084	> 10		Cc1cc(NC(=O)CCc2ccc3[nH]c(-c4ccc(Br)s4)nc3c2)ccc1N1CCOCC1=O
< 20	< 10	< 20		0.058			O=C(CCc1ccc2nc(-c3ccc(Br)s3)[nH]c2c1)NCC1CCN(c2ccncc2)CC1
< 20	< 10	< 20	> 10	0.02	> 10		Cc1cc(NC(=O)COc2ccc3[nH]c(-c4ccc(Cl)s4)nc3c2)ccc1N1CCOCC1=O
< 20	< 10	< 20	> 10	0.0082	> 10		Cc1cc(NC(=O)CCc2ccc3[nH]c(-c4ccc(Cl)s4)nc3c2)ccc1N1CCOCC1=O
< 20	< 10	< 20	> 10	0.014	> 10		O=C(Cc1ccc2[nH]c(-c3ccc(Cl)s3)nc2c1)NCC1CCN(c2ccncc2)CC1
< 20	< 10	< 20		0.032	> 10	> 10	O=C(CNC(=O)Nc1ccc(Cl)cc1)Nc1ccc(N2CCOCC2=O)cc1
< 20	< 10	< 20		0.041			Cc1cc(NC(=O)Cc2ccc3[nH]c(-c4ccc(Br)s4)nc3c2)ccc1N1CCOCC1=O
< 20	< 10	< 20	> 10	0.063	> 10		O=C(Cc1ccc2[nH]c(-c3ccc(Br)s3)nc2c1)Nc1ccc(-n2ccccc2=O)cc1
< 20	< 10	< 20	> 10	0.0052	> 10		O=C(Cc1ccc2[nH]c(-c3ccc(Br)s3)nc2c1)NCC1CCN(c2ccncc2)CC1
